What was measured:
[1] = test system: U46619-induced bronchoconstriction; assay: Bronchodilatation in vivo: inhibition of U46619-induced bronchoconstriction in anaesthetised guinea-pigs (Konzett-Rossler); parameters: species or system guinea-pig (Dunkin Hartley, male); conditions: for ED50: Cavia porcellus, iv, i.v. bolus, anaesthetised guinea-pig, range for the group of listed Examples, read-out: BD50 (dose of compound required to reduce the U46619-induced bronchoconstriction by 50%)
Protocol: Male guinea-pigs of the Dunkin Hartley strain (500-600g) were anaesthetised with Sagatal (pentobarbital sodium) (60 mg/kg). Airway resistance was measured using a modification of the classical Konzett-Rossler technique (J. Pharm. Methods, 13, 309- 315, 1985). […] The compound under test was administered by i.v. bolus injection, and the subsequent peak inhibition of bronchoconstriction recorded.
The dose of compound required to reduce the U46619-induced bronchoconstriction by 50% is given as the BD50. The compounds of Examples 1, 7, 8, 12, 13, 14, 18, 20, 21, 22 and 24 had BD50 values in the range 0.48-3.85 μmol/kg.

[2] = test system: hindquarter blood flow; assay: Vasodilatation in vivo: hindquarter blood flow in anaesthetised rats; parameters: species or system rat (Wistar, male); conditions: bolus i.v., 50 μmol/kg, rat
Protocol: Male Wistar rats (300 g) were anaesthetised with a sodium 5-ethyl-5-(1methylpropyl)-2-thiobarbiturate/sodium pentobarbitone mixture i.p. (62.5 and 22.5 mg/kg respectively). The trachea was cannulated and the rats breathed spontaneously air enriched with O2 (5 ml/min). Blood pressure was recorded from a carotid artery and a jugular vein was cannulated for the administration of compounds. The temperature of the animal was maintained at 37° C. by the use of an electric blanket. […] The perfusion circuit was primed with 5% bovine serum albumin dissolved in 0.9% sodium chloride solution, pH adjusted to 7.4. Initially the pump rate was set between 10 and 15 ml/min to match the hind quarter perfusion pressure to that of the systemic circulation. Once set, the pressure remained unaltered for the rest of the experiment. A change in the speed of the pump (equivalent to hindquarter blood flow) was used to assess the changes in hindquarter vascular resistance.

[3] = test system: ovalbumen-induced bronchoconstrictor response; assay: Anti-allergic activity: ovalbumen-induced bronchoconstriction in sensitised guinea-pigs; assay type: in vivo, guinea-pig (Duncan Hartley, male); conditions: ovalbumen 1 mg/kg i.v., n=6
Protocol: Male Duncan Hartley guinea-pigs (250-300 g) were sensitised to ovalbumen by i.p. injection of 2 ml of 50mg.ml^-1 i.p. and 0.2 ml s.c. Three weeks later they were anaesthetised with 60mg.kg^-1 sodium pentabarbitone. The trachea was cannulated and the animal respired at a rate of 40 breaths per minute and at an initial tracheal inflation pressure of 16 mmHg. Tracheal inflation pressure was measured by a transducer connected to a side arm of the respiration circuit. The carotid artery was cannulated for the measurement of blood pressure and the signal was used to trigger an instantaneous rate meter. A jugular vein was cannulated for the administration of drug and allergen. After surgery the animals were allowed to stabilise and the drug was administered i.v. as a bolus. Following this, ovalbumen 1 mg.kg^-1 was injected i.v. as the antigen challenge either 2, 15 or 30 minutes following drug treatment and the peak bronchoconstrictor response recorded. For the control group ovalbumen only was given. One ovalbumen challenge per guinea-pig was used and n=6 for each time point. The percentage increase in tracheal inflation pressure was calculated. The following results indicating an anti-allergic activity were obtained.

[4] = molecular target: T1, calmodulin insensitive cyclic GMP phosphodiesterase (Sus scrofa, UniProt A0A287B475); assay: Kinetic properties of the isolated PDE activity; assay type: biochemical, pig; conditions: at 1 μM substrate
T1 construct: kept on ice until the pulmonary arteries or aortas could be dissected and excess fat removed; from tissue; host or cells: pig pulmonary arteries or aortas; soluble fraction purified over DEAE-Sepharose, calmodulin-agarose and cibacron blue-agarose
Protocol: Eight pig hearts/lungs were collected from the abattoir and kept on ice until the pulmonary arteries or aortas could be dissected and excess fat removed. 120 g of tissue was dissected. […] On the day of homogenisation, tissue was cooled with liquid nitrogen and broken into small pieces by striking with a hammer. […] Phenylmethanesulphonylfluoride (PMSF) was added to a final concentration of 50 μM just prior to homogenisation. The homogenate was then centrifuged for 20 minutes at 30,000 g. Supernatant was filtered firstly through glass wool and then a 0.45 μm filter. […] The column was washed with 150 mls of homogenisation buffer and PDE activities eluted with 150 ml of homogenisation buffer containing 100 mM sodium acetate.
Fractions 2 and 3 were pooled and BIS-TRIS, MgCl2, CaCl2 added to final concentrations of 50 mM, 7 mM and 5 mM respectively. PMSF, leupeptin, antipain and pepstatin A were also added at the concentrations described above for these components. The pH of this pooled sample was corrected to 6.9.
The first column in the tandem was a 5 ml calmodulin-agarose column (Sigma) and the second a 1.5 ml cibacron blue 3GA-agarose column (Sigma). Both columns were pre-equilibrated with 50 mM BIS-TRIS, 5 mM MgCl2, 5 mM CaCl2, 5 mM benzamidine, 2 mM dithiothreitol pH 6.9. Following application of the sample the columns were washed with 20 ml of equilibration buffer. […]

[5] = test system: [H][C@@]12COP(=O)(O)O[C@@]1([H])[C@@H](O)[C@H](n1cnc3c(=O)[nH]c(N)nc31)O2; assay: purified protein, by the assay type; conditions: other: substrate of the isolated PDE activity

Row | Compound | ED50 [1] | other results
1 | CCCOc1ccccc1-c1nc2nc(SC)ncc2c(=O)[nH]1 [Example 1, 7-Methylthio-4-oxo-2-(2-propoxyphenyl)-3,4-dihydropyrimido-[4.5-d]pyrimidin] | 0.48 to 3.85 µmol/kg | increase in hindquarter blood flow [2]: 43.7%
2 | CCCOc1ccccc1-c1nc2nc(N)ncc2c(=O)[nH]1 [Example 7, 7 Amino 4-oxo-2-(2-propoxyphenyl)-3,4-dihydropyrimido[4.5-d]pyrimidine] | 0.48 to 3.85 µmol/kg | 
3 | CCCOc1ccccc1-c1nc2nc(NC)ncc2c(=O)[nH]1 [Example 8, 7-Methylamino-4-oxo-2-(2-propoxyphenyl)-3,4-dihydropyrimido[4.5-d]pyrimidine] | 0.48 to 3.85 µmol/kg | % Inhibition of Control Bronchoconstrictor Response 30 min after drug administration ([3]; dose 6.0 μmol/kg i.v.): 23%
4 | CCCOc1ccccc1-c1nc2nc(NCC)ncc2c(=O)[nH]1 [Example 12, 7-Ethylamino-4-oxo-2-(2-propoxyphenyl)-3,4-dihydropyrimido[4,5-d]pyrimidine] | 0.48 to 3.85 µmol/kg | % Inhibition of Control Bronchoconstrictor Response 30 min after drug administration ([3]; dose 18.7 μmol/kg i.v.): 24%
5 | CCCOc1ccccc1-c1nc2nc(NCCO)ncc2c(=O)[nH]1 [Example 13] | 0.48 to 3.85 µmol/kg | % Inhibition of Control Bronchoconstrictor Response 30 min after drug administration ([3]; dose 4.8 μmol/kg i.v.): 21%
6 | CCCOc1ccccc1-c1nc2nc(CC)ncc2c(=O)[nH]1 [Example 14, 7-Ethyl-4-oxo-2-(2-propoxyphenyl)-3,4-dihydropyrimido[4,5-d]pyrimidine] | 0.48 to 3.85 µmol/kg | 
7 | CCCOc1ccccc1-c1nc2nc(NC3CC3)ncc2c(=O)[nH]1 [Example 18, 7-Cyclopropylamino-4-oxo-2-(2-propoxyphenyl)-3,4-dihydropyrimido[4,5-d]pyrimidine] | 0.48 to 3.85 µmol/kg | % Inhibition of Control Bronchoconstrictor Response 30 min after drug administration ([3]; dose 22.6 μmol/kg i.v.): 44%
8 | CCCNc1ncc2c(=O)[nH]c(-c3ccccc3OCCC)nc2n1 [Example 20, 7-Propylamino-4-oxo-2-(2-propoxyphenyl)-3,4-dihydropyrimido[4,5-d]pyrimidine] | 0.48 to 3.85 µmol/kg | 
9 | CCCOc1ccccc1-c1nc2nc(NCCCO)ncc2c(=O)[nH]1 [Example 21, 7-(3-Hydroxypropylamino)-4-oxo-2-(2-propoxyphenyl)-3,4-dihydropyrimido[4.5 d]pyrimidine] | 0.48 to 3.85 µmol/kg | 
10 | CCCOc1ccccc1-c1nc2nc(NCCOC)ncc2c(=O)[nH]1 [Example 22] | 0.48 to 3.85 µmol/kg | 
11 | CCCOc1ccccc1-c1nc2nc(NCC(C)O)ncc2c(=O)[nH]1 (centres unmarked) [Example 24, 7-(2-Hydroxypropylamino)-4-oxo-2-(2-propoxyphenyl)-3,4-dihydropyrimido[4,5-d]pyrimidine] | 0.48 to 3.85 µmol/kg | % Inhibition of Control Bronchoconstrictor Response 30 min after drug administration ([3]; dose 6.5 μmol/kg i.v.): 24%
12 | CCCCCC(O)C=CC1C2CC(CO2)C1CC=CCCCC(=O)O (centres unmarked) [Example U46619, 9,11-methaneoepoxy-PGH2, reference compound] |  | increase from basal airway resistance (steady state of bronchoconstriction) ([1]; U46619 infused i.v. at 2.5 nmol/min): approximately 120%
13 | Nc1nc2c(ncn2[C@@H]2O[C@@H]3COP(=O)(O)O[C@H]3[C@H]2O)c(=O)[nH]1 [cGMP] |  | Ratio of cGMP/cAMP hydrolysis [4]: 30
14 | calmodulin insensitive cyclic GMP phosphodiesterase (Sus scrofa) |  | Km [5]: 1.3 µM

— US5162316A, “Pyrimido[4,5-d]pyrimidine derivatives for use as bronchodilators” (Smith Kline & French Laboratories Limited, priority 1988, dated 1992)
